In patent US20250163057A1, “DCN-1 MODULATING COMPOUNDS AND METHODS OF USE THEREOF” (Cellarity, Inc., priority 2023, published 2025):
Like-named read-outs stand apart in the source and are kept apart here.

How the values were obtained:
[1] = test system: Cullin-3 (CUL3) neddylation; test: AlphaLISA assay for Cullin-3 (CUL3) neddylation in TF 1 cells; assay type: cell-based; conditions: Homo sapiens, TF-1, 3 h, 3 hours treatment
How it was run: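 TF 1 cells in unsupplemented IMDM treated with compound concentrations for 3 h, then lysed. CUL3 neddylation detected by AlphaLISA (biotinylated anti-NEDD8, anti-CUL3 acceptor beads overnight, streptavidin donor beads 1 h); normalized to vehicle (0%) and 1 μM DI-1548 (100%), IC50 from Hill fits.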

[2] = molecular target: DCN1 (DCUND1) protein PONY domain (Homo sapiens (Human), UniProt Q96GG9); test: TR-FRET assay, DCN1 binding with FAM-labeled probe
How it was run: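 TR-FRET ratio (Tb-DCN1 to FAM-probe) read at 1, 5 and 24 hrs after compound addition. Protein: recombinant PONY domain from E. coli, biotinylated and coupled to streptavidin terbium. Either 5 nM DCN1 with 20 nM FAM-probe, or 0.31 nM DCN1 with 100 nM FAM-labelled plus 800 nM unlabelled probe.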

[3] = molecular target: DCN1 protein (Homo sapiens (Human), UniProt Q96GG9); test: Intact Protein MS Analysis with the RapidFire-TOF System (covalent adduct formation); assay type: binding; conditions: MS Emax; 400 nM DCN1, 3 hours at room temperature
How it was run: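 Tag-cleaved human DCN1 (400 nM) expressed in E. coli, in 25 mM Tris-HCl, 200 mM NaCl, 1 mM DTT, was incubated with 11 compound concentrations for 3 h at room temperature and quenched with 0.2% formic acid. Intact-protein Q-TOF MS with deconvolution detected the compound adduct mass.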

[4] = test system: fetal hemoglobin gene HBG1; test: HBG1 Nanostring Assay in CD34+ HSPC erythroid differentiation culture; assay type: cell-based, human; conditions: for EC50: Homo sapiens, 240 h, HBG1 induction, Day10 of erythroid differentiation; for Nanostring Ymax obs (%): relative to a control compound (C1)
How it was run: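 CD34+ HSPCs were dosed from day −2 (0.1% DMSO) through two-phase erythroid differentiation (EPO, transferrin, SCF, IL-3, insulin; IL-3 removed from day 7) at 37° C, 5% CO2. Day-10 lysates of 100K cells were hybridized at 67° C for 22 h for nCounter counting, normalized to ERCC and housekeeping controls. EC50 and Ymax were derived, with Ymax relative to a control compound.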

[5] = 24 hr after treatment with compound, read-out: TR FRET IC50 24 hr
[6] = TR FRET IC50 1 hr (nM), 1 hr after treatment with compound
[7] = read-out: TR FRET IC50 1 hr, 1 hr after treatment with compound

DCN1 protein, sequence (Q96GG9 whole entry): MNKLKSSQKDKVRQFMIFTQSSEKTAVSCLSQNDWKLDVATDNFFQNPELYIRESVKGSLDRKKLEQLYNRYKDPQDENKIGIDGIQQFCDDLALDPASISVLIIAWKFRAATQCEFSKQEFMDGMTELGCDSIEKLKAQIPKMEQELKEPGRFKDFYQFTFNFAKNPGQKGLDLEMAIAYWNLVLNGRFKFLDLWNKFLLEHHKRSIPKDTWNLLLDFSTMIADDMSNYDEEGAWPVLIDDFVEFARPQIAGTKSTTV
DCN1 (DCUND1) protein PONY domain, sequence (Q96GG9 60-248): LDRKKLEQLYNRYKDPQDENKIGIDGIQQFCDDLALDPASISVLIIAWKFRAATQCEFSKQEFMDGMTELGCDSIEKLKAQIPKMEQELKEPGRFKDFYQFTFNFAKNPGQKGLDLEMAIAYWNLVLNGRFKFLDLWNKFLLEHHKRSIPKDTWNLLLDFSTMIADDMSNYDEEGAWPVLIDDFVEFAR

| SMILES | IC50 [1] [nM] | IC50 [2, 5] [nM] | IC50 [2, 6] [nM] | % Adduct Formation [3] | EC50 [4] [nM] | Nanostring Ymax obs (%) [4] | IC50 [2, 7] [nM] |
| --- | --- | --- | --- | --- | --- | --- | --- |
| CCN1C(=O)[C@@H](NC(=O)c2cccc(C(F)(F)F)c2)[C@H](c2ccc(F)cc2)c2c(CNC(=O)/C=C(\C)C(=O)OC)nn(-c3ccccc3)c21 [Compound I-104] | 100 to 1000 | 200 to 1000 | 200 to 1000 | + (MS Emax % adduct formation greater than or equal to 0.0 and less than or equal to 30.0) | > 1000 | ++ (Nanostring Ymax greater than 50.0 and less than or equal to 100.0) |  |
| C=CS(=O)(=O)N(C)Cc1nn(-c2ccccc2)c2c1[C@H](c1ccc(F)cc1)[C@H](NC(=O)c1cccc(C(F)(F)F)c1)C(=O)N2CC (racemic) [Compound I-1] | ≤ 100 | ≤ 200 |  | +++ (MS Emax % adduct formation greater than 80.0 and less than or equal to 100.0) | > 1000 | ++ (Nanostring Ymax greater than 50.0 and less than or equal to 100.0) | ≤ 200 |
| CCN1C(=O)[C@@H](NC(=O)c2cccc(C(F)(F)F)c2)[C@@H](c2ccc(F)cc2)c2c(NC(=O)C3=CCCC3)nn(-c3ccccc3)c21 (racemic) [Compound I-65] | ≤ 100 | 200 to 1000 |  | + (MS Emax % adduct formation greater than or equal to 0.0 and less than or equal to 30.0) | > 1000 | ++ (Nanostring Ymax greater than 50.0 and less than or equal to 100.0) | ≤ 200 |
| CCN1C(=O)[C@H](NC(=O)c2cccc(C(F)(F)F)c2)[C@H](c2ccc(F)cc2)c2c(CN(C)C#N)nn(-c3ccccc3)c21 [Compound I-20] | > 1000 | 1000 to 3000 | 1000 to 3000 | ++ (MS Emax % adduct formation greater than 30.0 and less than or equal to 80.0) | > 1000 | + (Nanostring Ymax greater than or equal to 0.0 and less than or equal to 50.0) |  |
| C=C(C)C(=O)Nc1nn(-c2ccccc2)c2c1[C@H](c1ccc(F)cc1)[C@H](NC(=O)c1cccc(C(F)(F)F)c1)C(=O)N2CC (racemic) [Compound I-26] | 100 to 1000 | ≤ 200 |  | + (MS Emax % adduct formation greater than or equal to 0.0 and less than or equal to 30.0) | 100 to 1000 | ++ (Nanostring Ymax greater than 50.0 and less than or equal to 100.0) | ≤ 200 |
| CCN1C(=O)[C@@H](NC(=O)c2cccc(C(F)(F)F)c2)[C@@H](C)c2c(C(=O)N3[C@H](C#N)C[C@H]4C[C@H]43)nn(C3CCOCC3)c21 (mixture of isomers) [Compound I-386] | ≤ 100 | ≤ 200 |  | +++ (MS Emax % adduct formation greater than 80.0 and less than or equal to 100.0) | ≤ 100 | +++ (Nanostring Ymax greater than 100.0) | ≤ 200 |
| CCN1C(=O)[C@@H](NC(=O)c2cccc(C(F)(F)F)c2)[C@@H](c2ccc(F)cc2)c2c(C(=O)NCC#N)nn(-c3ccccc3)c21 [Compound I-148] | 100 to 1000 | 200 to 1000 | 1000 to 3000 | +++ (MS Emax % adduct formation greater than 80.0 and less than or equal to 100.0) |  | + (Nanostring Ymax greater than or equal to 0.0 and less than or equal to 50.0) |  |
| CCN1C(=O)[C@@H](NC(=O)c2cccc(C(F)(F)F)c2)[C@@H](c2ccc(F)cc2)c2c(CN3CC=CS3(=O)=O)nn(-c3ccccc3)c21 (racemic) [Compound I-110] | 100 to 1000 | 200 to 1000 | 200 to 1000 | + (MS Emax % adduct formation greater than or equal to 0.0 and less than or equal to 30.0) | > 1000 | + (Nanostring Ymax greater than or equal to 0.0 and less than or equal to 50.0) |  |
| CCN1C(=O)[C@H](NC(=O)c2cccc(C(F)(F)F)c2)[C@H](c2ccc(F)cc2)c2c([C@@H](C)NC#N)nn(-c3ccccc3)c21 [Compound I-13, N-((4R,5R)-3-((R)-1-cyanamidoethyl)-7-ethyl-4-(4-fluorophenyl)-6-oxo-1-phenyl-4,5,6,7-tetrahydro-1H-pyrazolo[3,4-b]pyridin-5-yl)-3-(trifluoromethyl)benzamide] | 100 to 1000 | 1000 to 3000 | 1000 to 3000 | ++ (MS Emax % adduct formation greater than 30.0 and less than or equal to 80.0) | > 1000 | + (Nanostring Ymax greater than or equal to 0.0 and less than or equal to 50.0) |  |
| CCN1C(=O)[C@@H](NC(=O)c2cccc(C(F)(F)F)c2)[C@@H](c2ccc(F)cc2)c2c(CNC(=O)C(C)(C)C#N)nn(-c3ccccc3)c21 (racemic) [Compound I-7, rac-N-((4R,5R)-3-((2-cyano-2-methylpropanamido)methyl)-7-ethyl-4-(4-fluorophenyl)-6-oxo-1-phenyl-4,5,6,7-tetrahydro-1H-pyrazolo[3,4-b]pyridine-5-yl)-3-(trifluoromethyl)benzamide] | 100 to 1000 | 1000 to 3000 | 1000 to 3000 | + (MS Emax % adduct formation greater than or equal to 0.0 and less than or equal to 30.0) | > 1000 | + (Nanostring Ymax greater than or equal to 0.0 and less than or equal to 50.0) |  |
| CCN1C(=O)[C@@H](NC(=O)c2cccc(C(F)(F)F)c2)[C@@H](C2CC2)c2c(C(=O)N3CCNC[C@@H]3C#N)nn(C3CCOCC3)c21 (single isomer, unassigned) [Compound I-371] | ≤ 100 | ≤ 200 | 200 to 1000 | +++ (MS Emax % adduct formation greater than 80.0 and less than or equal to 100.0) | 100 to 1000 | ++ (Nanostring Ymax greater than 50.0 and less than or equal to 100.0) |  |
| C=C(CC(=O)OC)C(=O)NCc1nn(-c2ccccc2)c2c1[C@H](c1ccc(F)cc1)[C@H](NC(=O)c1cccc(C(F)(F)F)c1)C(=O)N2CC (racemic) [Compound I-103] | > 1000 | 200 to 1000 | 200 to 1000 | + (MS Emax % adduct formation greater than or equal to 0.0 and less than or equal to 30.0) | 100 to 1000 | + (Nanostring Ymax greater than or equal to 0.0 and less than or equal to 50.0) |  |
| C/C=C(\CN1CCOCC1)C(=O)NCc1nn(-c2ccccc2)c2c1[C@@H](c1ccc(F)cc1)[C@H](NC(=O)c1cccc(C(F)(F)F)c1)C(=O)N2CC (racemic) [Compound I-27] | ≤ 100 | ≤ 200 |  | + (MS Emax % adduct formation greater than or equal to 0.0 and less than or equal to 30.0) | 100 to 1000 | ++ (Nanostring Ymax greater than 50.0 and less than or equal to 100.0) | ≤ 200 |
| C=C(C(=O)O)c1nn(-c2ccccc2)c2c1[C@@H](c1ccc(F)cc1)[C@@H](NC(=O)c1cccc(C(F)(F)F)c1)C(=O)N2CC [Compound I-77, 2-((4R,5R)-7-ethyl-4-(4-fluorophenyl)-6-oxo-1-phenyl-5-(3-(trifluoromethyl)benzamido)-4,5,6,7-tetrahydro-1H-pyrazolo[3,4-b]pyridin-3-yl)acrylic acid] | > 1000 | 1000 to 3000 | 1000 to 3000 | + (MS Emax % adduct formation greater than or equal to 0.0 and less than or equal to 30.0) | > 1000 | + (Nanostring Ymax greater than or equal to 0.0 and less than or equal to 50.0) |  |
| C=C(CN1CCOCC1)C(=O)NCc1nn(-c2ccccc2)c2c1[C@@H](c1ccc(F)cc1)[C@H](NC(=O)c1cccc(C(F)(F)F)c1)C(=O)N2CC (racemic) [Compound I-58] | ≤ 100 | ≤ 200 |  | + (MS Emax % adduct formation greater than or equal to 0.0 and less than or equal to 30.0) | > 1000 | + (Nanostring Ymax greater than or equal to 0.0 and less than or equal to 50.0) | ≤ 200 |
| C=C(C(=O)O)c1nn(-c2ccccc2)c2c1[C@H](c1ccc(F)cc1)[C@H](NC(=O)c1cccc(C(F)(F)F)c1)C(=O)N2CC (racemic) [Compound I-53, rac-2-((4R,5R)-7-ethyl-4-(4-fluorophenyl)-6-oxo-1-phenyl-5-(3-(trifluoromethyl)benzamido)-4,5,6,7-tetrahydro-1H-pyrazolo[3,4-b]pyridine-3-yl)acrylic acid] | 100 to 1000 | 200 to 1000 | 1000 to 3000 | ++ (MS Emax % adduct formation greater than 30.0 and less than or equal to 80.0) | > 1000 | +++ (Nanostring Ymax greater than 100.0) |  |
